Results: patent publication US7109244B2, “Compositions and methods comprising long-chain, straight-chain 2-amino-3-hydroxyalkanes” (priority 1997, dated 2006)
Where two headings read alike, the source gives them in different places.

Assays:
[1] = test system: L1210 murine lymphocytic leukemia cells; experiment: L1210 cytotoxicity assay (inhibition of growth); format: cell-based
Experimental: The morphological effect was usually measured 30–35 h after the start of the assay and again about 24 h later, while the cytotoxicity was determined when the number of cells in the controls reached approximately 8000, usually in 3 days after the assay was begun. It should be noted that the pointed cells were live cells and that they were counted as such for the cytotoxicity reading. […] All morphologically-changed cells were counted in the pointed cell percentage.
Cytotoxicity assays against L1210 murine lymphocytic leukemia cells were performed by dissolving the samples in methanol and/or hexane were applied to the dry assay wells and the solvent was allowed to evaporate. Cells (1000) were added in minimum essential medium (MEM, 1 ml) and incubated 37° C. Inhibition of growth was recorded as the estimated percentage of living cells in sample wells versus that in control wells.

HL-60 cells = conditions: cells treated with phorbol 12-myristate-13-acetate; cited from earlier work
[2] = test system: Chinese hamster ovary (CHO) cells; conditions: cited from earlier work
[3] = test system: L1210 murine lymphocytic leukemia cells; experiment: L1210 morphological change (pointed cells); format: cell-based; conditions: for % Pointed Cells 1st: 27 h
Experimental: Referring to FIG. 1, in the L1210 assay some of the cells changed from being spherical (FIG. 1A) to ovoid with long points approximately […] apart (FIG. 1B). Several other forms have also been observed in assays of these extracts, including cells with points not […] apart (FIG. 1C), cells with more than two points (FIG. 1D), cells with a bulge (FIG. 1E) and cells with a bulge replacing one of the points (FIG. 1F). However, the form with two sharp, opposing points was by far the predominant and characteristic one observed. This type of morphological change had not previously been observed during the screening of over 1000 marine extracts.
As discussed above, the spisulosines caused a distinct morphological change in L1210 leukemia cells, in addition to cytotoxicity. This bioactivity, which was recorded as the percentage of living cells in which altered morphology was observed, could be observed sometimes as early as 13 h after the start of the assay and reached a maximum at 50–60 h, after which it decreased. […] The morphological effect was usually measured 30–35 h after the start of the assay and again about 24 h later, while the cytotoxicity was determined when the number of cells in the controls reached approximately 8000, usually in 3 days after the assay was begun. It should be noted that the pointed cells were live cells and that they were counted as such for the cytotoxicity reading. Also, assays in which 100% cytotoxicity was recorded may still have contained live cells (<0.5%) which may or may not have been pointed. All morphologically-changed cells were counted in the pointed cell percentage.
Morphologically-changed cells (FIGS. 1A–1F) were counted as living cells when determining the percent inhibition of growth. Morphological changes were assessed throughout the assay period. The percentage of pointed cells was determined by counting the number of altered cells in approximately 60 living cells. This percentage varied with the length of time the assay had been running. It generally reached its maximum about 50 hours after the start of the assay, but pointed cells could be observed as early as 13 hours after the start of the assay and could usually still be seen when the percent growth inhibition was measured. The percentages of pointed cells were often counted both after about 35 and after 55 hours. The time that this measurement was made is indicated with the data.

protein kinase C = conditions: competing with diacylglycerol for the binding site; cited from earlier work
[4] = test system: Gram-positive and Gram-negative bacteria and fungi; conditions: cited from earlier work
[5] = test system: Nippostrongylus brasiliensis; conditions: cited from earlier work
Vero cells = experiment: effect of LPA on the action of spisulosine 285 in Vero cells (Example D); format: cell-based
Text: LPA is known to increase the level of stress fibers in cells by activation of the Rho protein. The effect of LPA on cells treated with spisulosine 285, and untreated cells was examined. […]

Molecule: CCCCCCCCCCCCC/C=C/[C@@H](O)[C@@H](N)CO (relative stereo) [sphingosine, D-trans-erythro-sphingosine, reference compound]
- L1210 cytotoxicity (in words) [1]: moderate cytotoxicity
- % Inhibition ([1]; 0.1 μg/ml): 0%
- % Inhibition ([1]; 0.5 μg/ml): 31%
- % Inhibition ([1]; 1 μg/ml): 75%
- % Inhibition ([1]; 5 μg/ml): 100%
- differentiation of HL-60 cells (HL-60 cells): inhibit the differentiation
- cytotoxicity [2]: cytotoxic
- L1210 morphological alteration / pointed cell activity (in words) [3]: no morphological effect
- % Pointed cells ([3]; 0.1 μg/ml): 0%
- % Pointed cells ([3]; 0.5 μg/ml): 0%
- % Pointed cells ([3]; 1 μg/ml): 0%
- % Pointed cells ([3]; 5 μg/ml): 0%
- inhibition of protein kinase C (protein kinase C): potent inhibitor

Molecule: CCCCCCCCCCCCCCCCCCN [Compound 131, stearylamine, reference compound]
- L1210 cytotoxicity (in words) [1]: moderate cytotoxicity
- inhibition at 0.1 µg/mL ([1]; Mus musculus, L1210, 0.1 μg/ml, read-out: % Inhibition): 0%
- inhibition at […] ([1]; Mus musculus, L1210, 0.25 μg/ml, read-out: % Inhibition): 0%
- inhibition at 0.5 µg/mL ([1]; Mus musculus, L1210, 0.5 μg/ml, read-out: % Inhibition): 0%
- inhibition at 1 µg/mL ([1]; Mus musculus, L1210, 1 μg/ml, read-out: % Inhibition): 19%
- inhibition at […] ([1]; Mus musculus, L1210, 2.5 μg/ml, read-out: % Inhibition): 96%
- inhibition at 5 µg/mL ([1]; Mus musculus, L1210, 5 μg/ml, read-out: % Inhibition): 99%
- cytotoxicity [2]: cytotoxic
- L1210 morphological alteration / pointed cell activity (in words) [3]: no morphological effect
- % Pointed cells ([3]; 0.1 μg/ml): 0%
- % Pointed cells ([3]; 0.5 μg/ml): 0%
- % Pointed cells ([3]; 1 μg/ml): 0%
- % Pointed cells ([3]; 5 μg/ml): 0%

Molecule: CCCCCCCCCCCCCCC[C@H](O)[C@H](C)N [Compound 154, (2S,3S)-2-amino-3-octadecanol]
- inhibition at 0.1 µg/mL ([1]; Mus musculus, L1210, 0.1 μg/ml, read-out: % Inhibitiion): 0%
- inhibition at […] ([1]; Mus musculus, L1210, 0.25 μg/ml, read-out: % Inhibitiion): 0%
- inhibition at 0.5 µg/mL ([1]; Mus musculus, L1210, 0.5 μg/ml, read-out: % Inhibitiion): 0%
- inhibition at 1 µg/mL ([1]; Mus musculus, L1210, 1 μg/ml, read-out: % Inhibitiion): 63%
- inhibition at […] ([1]; Mus musculus, L1210, 2.5 μg/ml, read-out: % Inhibitiion): 100%
- inhibition at 5 µg/mL ([1]; Mus musculus, L1210, 5 μg/ml, read-out: % Inhibitiion): 100%
- % Pointed Cells 1st ([3]; 0.1 μg/ml): 0%
- % Pointed Cells 1st ([3]; 0.5 μg/ml): 0%
- % Pointed Cells 1st ([3]; 1 μg/ml): 0%
- % Pointed Cells 1st ([3]; 5 μg/ml): 0%

Molecule: CCCCCCCCCCCCC/C=C/[C@@H](O)[C@@H](N)COP(=O)(O)OCC[N+](C)(C)C [Compound 163, reference compound]
- inhibition at 10 µg/mL ([1]; Mus musculus, L1210, 10 μg/ml): 38%
- inhibition at 25 µg/mL ([1]; Mus musculus, L1210, 25 μg/ml): 50%
- inhibition at 50 µg/mL ([1]; Mus musculus, L1210, 50 μg/ml): 88%
- % Pointed cells ([3]; 10 μg/ml): 0%
- % Pointed cells ([3]; 25 μg/ml): 0%
- % Pointed cells ([3]; 50 μg/ml): 0%

Molecule: CCCCCCCCCCCCCCC[C@@H](O)[C@@H](N)CO [Compound 164, dihydrosphingosine]
- cytotoxicity [2]: did not affect the cytotoxicity

Molecule: C=CCCCCCCCCCC(O)C(C)N (centres unmarked) [Xestaminol A]
- activity against bacteria and fungi [4]: weak activity
- antihelminthic activity [5]: antihelminthic activity

Molecule: Lysophosphatidic acid [LPA]
- effect of LPA added prior to spisulosine on morphology (Vero cells; 10 mM LPA 2 hours, then 0.5 mM spisulosine 285 for 18 hours): prevents the morphological change promoted by spisulosine
- level of actin (Vero cells; 10 mM LPA, 2 hours): increasing the level of actin
